In patent publication US20230085307A1, “PYRIDAZINONE COMPOUND AND HERBICIDE” (NISSAN CHEMICAL CORPORATION, priority 2019, published 2023):

Assays:
barnyard grass [1] = experiment: Test Example 5: herbicidal effect by foliage application, plastic box (Table 20, symbol H); assay type: in vivo, barnyard grass (Echinochloa crus-galli); details: amount of applied herbicide 320 g/ha; foliage application after 14-day growth; evaluated three weeks after application
Outline: (§1)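 Post-emergence foliar test in sterilized diluvial soil. Compound applied as water-diluted emulsion at a predetermined rate to 14-day-old plants; evaluation at three weeks.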

velvetleaf [2] = experiment: Test Example 5: herbicidal effect by foliage application, plastic box (Table 20, symbol M); assay type: in vivo, velvetleaf (Abutilon theophrasti); details: amount of applied herbicide 320 g/ha; foliage application after 14-day growth; evaluated three weeks after application
Outline: as §1

blackgrass [3] = experiment: Test Example 4: herbicidal effect by soil treatment (Table 19, symbol J); assay type: in vivo, blackgrass (Alopecurus myosuroides); details: amount of applied herbicide 320 g/ha
Outline: (§2)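 Emulsion of test compound, water-diluted to predetermined amount, sprayed on soil after sowing (seed depth ~1.5 cm, sterilized diluvial soil). Greenhouse, 25–30° C. Effect graded at three weeks post-spray.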

lambsquarters [4] = experiment: Test Example 4: herbicidal effect by soil treatment (Table 19, symbol O); assay type: in vivo, lambsquarters (Chenopodium album); details: amount of applied herbicide 320 g/ha
Outline: as §2

oval-leafed pondweed = experiment: Test Example 1: herbicidal activity, application before weed generation under submerged conditions (Table 16, symbol C); assay type: in vivo, oval-leafed pondweed (Monochoria vaginalis); details: amount of applied herbicide 320 g/ha
Outline: (§3)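 Submerged Wagner pots (alluvial soil, 4 cm water) sown with weed seeds and planted with 2.5-leaf rice seedlings; emulsifiable concentrate diluted in water applied to water surface on sowing day. Held in greenhouse at 25-30 °C; injury scored 0-5 by herbicidal rate after three weeks.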

windgrass [5] = experiment: Test Example 5: herbicidal effect by foliage application, plastic box (Table 20, symbol L); assay type: in vivo, windgrass (Apera spica-venti); details: amount of applied herbicide 320 g/ha; foliage application after 14-day growth; evaluated three weeks after application
Outline: as §1

chickweed [6] = experiment: Test Example 4: herbicidal effect by soil treatment (Table 19, symbol P); assay type: in vivo, common chickweed (Stellaria media); details: amount of applied herbicide 320 g/ha
Outline: as §2

Italian ryegrass [7] = experiment: Test Example 4: herbicidal effect by soil treatment (Table 19, symbol K); assay type: in vivo, Italian ryegrass (Lolium multiflorum); details: amount of applied herbicide 320 g/ha
Outline: as §2

wild oat [8] = experiment: Test Example 4: herbicidal effect by soil treatment (Table 19, symbol I); assay type: in vivo, wild oat (Avena fatua); details: amount of applied herbicide 320 g/ha
Outline: as §2

green foxtail [9] = experiment: Test Example 5: herbicidal effect by foliage application, plastic box (Table 20, symbol G); assay type: in vivo, green foxtail (Setaria viridis); details: amount of applied herbicide 320 g/ha; foliage application after 14-day growth; evaluated three weeks after application
Outline: as §1

green foxtail [10] = experiment: Test Example 4: herbicidal effect by soil treatment (Table 19, symbol G); assay type: in vivo, green foxtail (Setaria viridis); details: amount of applied herbicide 320 g/ha
Outline: as §2

southern crabgrass [11] = experiment: Test Example 5: herbicidal effect by foliage application, plastic box (Table 20, symbol F); assay type: in vivo, southern crabgrass (Digitaria ciliaris); details: amount of applied herbicide 320 g/ha; foliage application after 14-day growth; evaluated three weeks after application
Outline: as §1

rice flat sedge = experiment: Test Example 3: herbicidal effect by foliage application, Wagner pot (Table 18, symbol E); assay type: in vivo, rice flat sedge (Cyperus iria); details: 320 g/ha
Outline: (§4)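 Plants were sown in alluvial soil held under 0.1–0.5 cm standing water and grown 14 days in a greenhouse at 25–30 °C. An emulsifiable formulation, water-diluted to the set dose, was then sprayed onto the foliage, and effects were scored three weeks later using previously defined criteria.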

barnyard grass [12] = experiment: Test Example 3: herbicidal effect by foliage application, Wagner pot (Table 18, symbol H); assay type: in vivo, barnyard grass (Echinochloa crus-galli); details: 320 g/ha
Outline: as §4

persian speedwell [13] = experiment: Test Example 4: herbicidal effect by soil treatment (Table 19, symbol R); assay type: in vivo, Persian speedwell (Veronica persica); details: amount of applied herbicide 320 g/ha
Outline: as §2

redroot pigweed [14] = experiment: Test Example 4: herbicidal effect by soil treatment (Table 19, symbol N); assay type: in vivo, redroot pigweed (Amaranthus retroflexus); details: amount of applied herbicide 320 g/ha
Outline: as §2

barnyard grass [15] = experiment: Test Example 4: herbicidal effect by soil treatment (Table 19, symbol H); assay type: in vivo, barnyard grass (Echinochloa crus-galli); details: amount of applied herbicide 320 g/ha
Outline: as §2

chickweed [16] = experiment: Test Example 5: herbicidal effect by foliage application, plastic box (Table 20, symbol P); assay type: in vivo, common chickweed (Stellaria media); details: amount of applied herbicide 320 g/ha; foliage application after 14-day growth; evaluated three weeks after application
Outline: as §1

blackgrass [17] = experiment: Test Example 5: herbicidal effect by foliage application, plastic box (Table 20, symbol J); assay type: in vivo, blackgrass (Alopecurus myosuroides); details: amount of applied herbicide 320 g/ha; foliage application after 14-day growth; evaluated three weeks after application
Outline: as §1

Chinese sprangletop = experiment: Test Example 3: herbicidal effect by foliage application, Wagner pot (Table 18, symbol D); assay type: in vivo, chinese sprangletop (Leptochloa chinensis); details: 320 g/ha
Outline: as §4

redroot pigweed [18] = experiment: Test Example 5: herbicidal effect by foliage application, plastic box (Table 20, symbol N); assay type: in vivo, redroot pigweed (Amaranthus retroflexus); details: amount of applied herbicide 320 g/ha; foliage application after 14-day growth; evaluated three weeks after application
Outline: as §1

velvetleaf [19] = experiment: Test Example 4: herbicidal effect by soil treatment (Table 19, symbol M); assay type: in vivo, velvetleaf (Abutilon theophrasti); details: amount of applied herbicide 320 g/ha
Outline: as §2

windgrass [20] = experiment: Test Example 4: herbicidal effect by soil treatment (Table 19, symbol L); assay type: in vivo, windgrass (Apera spica-venti); details: amount of applied herbicide 320 g/ha
Outline: as §2

wild oat [21] = experiment: Test Example 5: herbicidal effect by foliage application, plastic box (Table 20, symbol I); assay type: in vivo, wild oat (Avena fatua); details: amount of applied herbicide 320 g/ha; foliage application after 14-day growth; evaluated three weeks after application
Outline: as §1

persian speedwell [22] = experiment: Test Example 5: herbicidal effect by foliage application, plastic box (Table 20, symbol R); assay type: in vivo, Persian speedwell (Veronica persica); details: amount of applied herbicide 320 g/ha; foliage application after 14-day growth; evaluated three weeks after application
Outline: as §1

Japanese bulrush = experiment: Test Example 1: herbicidal activity, application before weed generation under submerged conditions (Table 16, symbol B); assay type: in vivo, Japanese bulrush (Schoenoplectus juncoides); details: amount of applied herbicide 320 g/ha
Outline: as §3

late watergrass = experiment: Test Example 1: herbicidal activity, application before weed generation under submerged conditions (Table 16, symbol A); assay type: in vivo, late watergrass (Echinochloa oryzicola); details: amount of applied herbicide 320 g/ha
Outline: as §3

lambsquarters [23] = experiment: Test Example 5: herbicidal effect by foliage application, plastic box (Table 20, symbol O); assay type: in vivo, lambsquarters (Chenopodium album); details: amount of applied herbicide 320 g/ha; foliage application after 14-day growth; evaluated three weeks after application
Outline: as §1

southern crabgrass [24] = experiment: Test Example 4: herbicidal effect by soil treatment (Table 19, symbol F); assay type: in vivo, southern crabgrass (Digitaria ciliaris); details: amount of applied herbicide 320 g/ha
Outline: as §2

Italian ryegrass [25] = experiment: Test Example 5: herbicidal effect by foliage application, plastic box (Table 20, symbol K); assay type: in vivo, Italian ryegrass (Lolium multiflorum); details: amount of applied herbicide 320 g/ha; foliage application after 14-day growth; evaluated three weeks after application
Outline: as §1

SMILES: CCCC(=O)Oc1c(C)nn(C)c(=O)c1-c1c(-c2ccc(OC(F)(F)F)cc2)sc2c(Cl)cccc12 [4-079]
- Herbicidal effect by foliage application, H: barnyard grass (barnyard grass [1]): 0 (Herbicidal rate of 5% or less (almost no effect))
- Herbicidal effect by foliage application, M: velvetleaf (velvetleaf [2]): 4 (Herbicidal rate of 70% or more and less than 90%)
- Herbicidal effect by soil treatment, J: blackgrass (blackgrass [3]): 0 (Herbicidal rate of 5% or less (almost no effect))
- Herbicidal effect by soil treatment, O: lambsquarters (lambsquarters [4]): 0 (Herbicidal rate of 5% or less (almost no effect))
- Herbicidal effect, C: oval-leafed pondweed (oval-leafed pondweed): 0 (Herbicidal rate of 5% or less (almost no effect))
- Herbicidal effect by foliage application, L: windgrass (windgrass [5]): 3 (Herbicidal rate of 40% or more and less than 70%)
- Herbicidal effect by soil treatment, P: chickweed (chickweed [6]): 0 (Herbicidal rate of 5% or less (almost no effect))
- Herbicidal effect by soil treatment, K: Italian ryegrass (Italian ryegrass [7]): 0 (Herbicidal rate of 5% or less (almost no effect))
- Herbicidal effect by soil treatment, I: wild oat (wild oat [8]): 0 (Herbicidal rate of 5% or less (almost no effect))
- Herbicidal effect by foliage application, G: green foxtail (green foxtail [9]): 0 (Herbicidal rate of 5% or less (almost no effect))
- Herbicidal effect by soil treatment, G: green foxtail (green foxtail [10]): 0 (Herbicidal rate of 5% or less (almost no effect))
- Herbicidal effect by foliage application, F: southern crabgrass (southern crabgrass [11]): 0 (Herbicidal rate of 5% or less (almost no effect))
- herbicidal effect on rice flat sedge (E) (rice flat sedge): 2 (Herbicidal rate of 20% or more and less than 40%)
- herbicidal effect on barnyard grass (H) (barnyard grass [12]): 2 (Herbicidal rate of 20% or more and less than 40%)
- Herbicidal effect by soil treatment, R: persian speedwell (persian speedwell [13]): 3 (Herbicidal rate of 40% or more and less than 70%)
- Herbicidal effect by soil treatment, N: redroot pigweed (redroot pigweed [14]): 2 (Herbicidal rate of 20% or more and less than 40%)
- Herbicidal effect by soil treatment, H: barnyard grass (barnyard grass [15]): 0 (Herbicidal rate of 5% or less (almost no effect))
- Herbicidal effect by foliage application, P: chickweed (chickweed [16]): 5 (Herbicidal rate of 90% or more (almost completely withered))
- Herbicidal effect by foliage application, J: blackgrass (blackgrass [17]): 0 (Herbicidal rate of 5% or less (almost no effect))
- herbicidal effect on Chinese sprangletop (D) (Chinese sprangletop): 2 (Herbicidal rate of 20% or more and less than 40%)
- Herbicidal effect by foliage application, N: redroot pigweed (redroot pigweed [18]): 3 (Herbicidal rate of 40% or more and less than 70%)
- Herbicidal effect by soil treatment, M: velvetleaf (velvetleaf [19]): 0 (Herbicidal rate of 5% or less (almost no effect))
- Herbicidal effect by soil treatment, L: windgrass (windgrass [20]): 0 (Herbicidal rate of 5% or less (almost no effect))
- Herbicidal effect by foliage application, I: wild oat (wild oat [21]): 0 (Herbicidal rate of 5% or less (almost no effect))
- Herbicidal effect by foliage application, R: persian speedwell (persian speedwell [22]): 5 (Herbicidal rate of 90% or more (almost completely withered))
- Herbicidal effect, B: Japanese bulrush (Japanese bulrush): 0 (Herbicidal rate of 5% or less (almost no effect))
- Herbicidal effect, A: late watergrass (late watergrass): 2 (Herbicidal rate of 20% or more and less than 40%)
- Herbicidal effect by foliage application, O: lambsquarters (lambsquarters [23]): 3 (Herbicidal rate of 40% or more and less than 70%)
- Herbicidal effect by soil treatment, F: southern crabgrass (southern crabgrass [24]): 0 (Herbicidal rate of 5% or less (almost no effect))
- Herbicidal effect by foliage application, K: Italian ryegrass (Italian ryegrass [25]): 0 (Herbicidal rate of 5% or less (almost no effect))
